Test results published in patent publication US10201523B2, “Use of wilforlide A for overcoming chemotherapy resistance” (WESTERN UNIVERSITY OF HEALTH SCIENCES, priority 2013, dated 2019).
Where “and” joins values, the source holds several entries; their conditions need not be identical. Equal values may be shown once.

Experiments:
[1] = tested on: PC3-TxR; assay: SRB cell viability assay, 72 h wilforlide A dose-response; assay type: cell-based, human; conditions: for A at 565 nm: background = 0.044
Description: The determination of the wilforlide A IC50. The IC50 for wilforlide A was determined in vitro for the purpose of identifying wilforlide A concentrations that could be used for determining its chemosensitizing effect (CE) in cell cultures of the docetaxel-resistant prostate cancer line PC3-TxR (Obtained from Prof. Evan T. Keller, University of Michigan).
Post-recovery, the plating media was aspirated from the cell cultures, and replaced with 50 μl per well of RPMI containing a designated concentration of wilforlide A. Then, the cells were incubated in the presence of the wilforlide A media for 72 hours. The 50 μl wilforlide A aliquots were prepared by making 1:3 serial dilutions of a wilforlide A stock solution (0.5 mg/ml in DMSO) to with concentrations ranging from 1×10^2 to 1×10^−3 μg/ml.

[2] = Maximum tolerated dose study, single and multiple dose (sdMTD, mdMTD); assay type: in vivo; conditions: single and multiple (daily, 7 days) dose, CD-1 mice
Description: Maximum tolerated dose (MTD)s of wilforlide A were determined for single MTD (sdMTD) and multiple dose MTD (mdMTD) protocols. […] A seven day-long sdMTD study was performed in which the single dose was administered on day one. A seven day-long mdMTD study was also performed in which wilforlide was administered daily.
(§1) The administration routes used in these studies were intravenous (i.v.), oral gavage (p.o.), and intraperitoneal (i.p.) administration. […] More specifically, working concentrations of wilforlide A were prepared by: (i) dissolving wilforlide A inDMSO at a concentration of 3 mg/ml at 80° C. for use with i.p. administration; (ii) dissolving wilforlide A in Capmul™ at a concentration of 3 mg/ml for use with p.o. administration; and (iii) dissolving wilforlide A inDMSO at a concentration of 1.5 mg/ml at 80° C., and then diluted ten times in 40% HBCD (w/v) for use with i.v. administration. […] Thus, the MTD study was started with these doses.
For each dose regimen tested, 12 CD-1 mice (6 males and 6 females) received appropriate volume of each wilforlide A preparation. The mice were housed with food and water ad libitum. All mice were monitored for the four hour period that immediately followed wilforlide A administration for indications of acute toxicity, as well as monitored at least 3 times daily for one week for indications of delayed toxicity. The mice were also weighed 24 hours post treatment as well as every other day during the week-long study.

[3] = tested on: K562/Dox; assay: SRB cell viability assay, daunorubicin with/without wilforlide A pretreatment; assay type: cell-based; conditions: K562/Dox (daunorubicin-resistant); 2.5 μg/ml pretreatment
Description: Wilforlide A sensitizes the daunorubicin-resistant myelogenous leukemia line K562/Dox, to daunorubicin. […] FIG. 5 summarizes the data of Tables 20 and 21 in a graphical format.

[4] = Pharmacokinetics of wilforlide A in mice (plasma, HPLC-MS/MS); assay type: in vivo; conditions: CD-1 mice; for Cmax: plasma; for T1/2: terminal elimination
Description: as §1
To determine the pharmacokinetics of wilforlide A in mice, wilforlide A was formulated for i.p., p.o., and i.v. administration as describe above, for doses of 6, 30, and 1.2 mg/kg, respectively. Four CD-1 mice were sacrificed prior to wilforlide A administration and at: (i) 5, 10, 15, 20, 30, and 60 min after i.p. administration; (ii) 2, 5, 10, 15, 20, and 30 min after p.o. administration; and (iii) 1, 2, 3, and 4 hours after i.v. administration. At each time point, blood was drawn via heart puncture and plasma was separated by a five min centrifution at 10000 rpm. Plasma wilforlide A concentrations were measured using a validated HPLC-MS/MS method. The peak drug concentration (Cmax) and time to peak drug concentration (Tmax) were read directly from the plasma concentration time course data, while the terminal elimination half-life (T1/2) was calculated to be 0.693/Ke, where Ke was the terminal phase elimination rate. A-C, respectfully.

[5] = Water solubility of wilforlide A; assay type: physicochemical
[6] = tested on: DU145-TxR; assay: SRB cell viability assay, docetaxel with/without wilforlide A pretreatment; assay type: cell-based; conditions: DU145-TxR (docetaxel-resistant); 2.5 μg/ml pretreatment
Description: FIG. 4 summarizes the data of Tables 18 and 19 in a graphical format.

[7] = tested on: PC3; assay: as above; conditions: PC3 (docetaxel-sensitive); 0.6, 1.25 or 2.5 μg/ml pretreatment
[8] = tested on: PC3-TxR; assay: as above; assay type: cell-based, human; conditions: PC3-TxR (docetaxel-resistant); 0.6-5.0 μg/ml pretreatment
[9] = tested on: SkBr3-TxR; assay: SRB cell viability assay, lapatinib with/without wilforlide A pretreatment; assay type: cell-based; conditions: SkBr3-TxR (lapatinib-resistant); 2.5 μg/ml pretreatment
[10] = tested on: PC3-TxR cell tumors; assay: In vivo tumor xenograft study, chemosensitizing effect with docetaxel; design: species or system SCID mice
Description: To perform this study, tumors were caused to form in fifty six severe four to six week-old, severe combined immunodeficient (SCID) male mice (Taconic Farms, Inc. Oxnard, Calif.) that weighed from 15 to 20 g were obtained and housed in cages with HEPA-filtered air (12-hr light/dark cycle) by subcutaneously injecting PC3-TxR cells in the mice. To prepare the cells for injection, the cells were suspended in a 1:1 mixture of Matrigel (BC Biosciences, Franklin Lakes, N.J., U.S.A.) and RPMI 1640 (Mediatech, Manassas, Va., or Life Technologies, Grand Island, N.Y.). Then the cells were subcutaneously implanted into planks of mice via injection. Mice that had consistently shown tumor growth for fourteen days following the injection of cells were used in the tumor studies. More specifically, these studies were initiated when the xenografted tumors reached a tumor size of about 120 mm^3, calculated by the formula for a semiepplipoid, i.e., Volume=Width2×(Length/2).

[11] = tested on: Bt474-TxR; assay: SRB cell viability assay, lapatinib with/without wilforlide A pretreatment; assay type: cell-based; conditions: BT474-TxR (lapatinib-resistant); 2.5 or 25 μg/ml pretreatment

With `CC1(C)[C@@H](O)CC[C@]2(C)[C@H]3CC=C4[C@@H]5C[C@@]6(C)C[C@H](OC6=O)[C@]5(C)CC[C@@]4(C)[C@]3(C)CC[C@@H]12` [wilforlide A, 3-epiabruslactone A] the “% viable” value ([1]; wilforlide A 0.001 μg/ml 72 h) was 100.0%, the “mean A” value ([1]; wilforlide A 0.001 μg/ml 72 h) was 2.618 and the “A at 565 nm” value ([1]; wilforlide A 0.001 μg/ml 72 h) was 2.599 and 2.624 and 2.607 and 2.635 and 2.593 and 2.646. The “% viable” value ([1]; wilforlide A 0.1 μg/ml 72 h) was 99.6%, the “mean A” value ([1]; wilforlide A 0.1 μg/ml 72 h) was 2.606 and the “A at 565 nm” value ([1]; wilforlide A 0.1 μg/ml 72 h) was 2.611 and 2.592 and 2.610 and 2.617 and 2.615. For the same compound, the “% viable” value ([1]; wilforlide A 0.333 μg/ml 72 h) was 100.9%, the “mean A” value ([1]; wilforlide A 0.333 μg/ml 72 h) was 2.642 and the “A at 565 nm” value ([1]; wilforlide A 0.333 μg/ml 72 h) was 2.645 and 2.618 and 2.661 and 2.646 and 2.664 and 2.617. For the same compound, the “% viable” value ([1]; wilforlide A 1 μg/ml 72 h) was 101.5%, the “mean A” value ([1]; wilforlide A 1 μg/ml 72 h) was 2.657 and the “A at 565 nm” value ([1]; wilforlide A 1 μg/ml 72 h) was 2.626 and 2.629 and 2.755 and 2.658 and 2.659 and 2.616. The “% viable” value ([1]; wilforlide A 3.33 μg/ml 72 h) was 77.7%, the “mean A” value ([1]; wilforlide A 3.33 μg/ml 72 h) was 2.033 and the “A at 565 nm” value ([1]; wilforlide A 3.33 μg/ml 72 h) was 2.082 and 1.928 and 2.081 and 1.950 and 2.070 and 2.088. For the same compound, the “% viable” value ([1]; wilforlide A 10 μg/ml 72 h) was 13.4%, the “mean A” value ([1]; wilforlide A 10 μg/ml 72 h) was 0.351 and the “A at 565 nm” value ([1]; wilforlide A 10 μg/ml 72 h) was 0.399 and 0.358 and 0.348 and 0.325 and 0.320 and 0.357. The “% viable” value ([1]; wilforlide A 33.3 μg/ml 72 h) was 2.9%, the “mean A” value ([1]; wilforlide A 33.3 μg/ml 72 h) was 0.076 and the “A at 565 nm” value ([1]; wilforlide A 33.3 μg/ml 72 h) was 0.096 and 0.072 and 0.074 and 0.073 and 0.069. For the same compound, the “% viable” value ([1]; wilforlide A 100 μg/ml 72 h) was 1.0%, the “mean A” value ([1]; wilforlide A 100 μg/ml 72 h) was 0.025 and the “A at 565 nm” value ([1]; wilforlide A 100 μg/ml 72 h) was 0.023 and 0.024 and 0.033 and 0.027 and 0.018. For the same compound, the “tolerability in MTD study” value ([2]; 6 mg/kg i.p.) was “well tolerant”, the “tolerability in MTD study” value ([2]; 30 mg/kg p.o.) was “well tolerant” and the “tolerability in MTD study” value ([2]; […] i.v.) was “well tolerant”. The “chemosensitizing effect to daunorubicin” value [3] was “sensitizes”, the Cmax ([4]; i.p. 6 mg/kg) was 750 ng/mL and the Cmax ([4]; p.o. 30 mg/kg) was 30 ng/mL. It also gave a T1/2 ([4]; i.p. 6 mg/kg) of 41.0 min, a T1/2 ([4]; i.v. […]) of 11.2 min and a T1/2 ([4]; p.o. 30 mg/kg) of 25.6 min. For the same compound, the water solubility [5] was “poorly water soluble”, the “chemosensitizing effect to docetaxel” value [6] was “sensitizes” and the “chemosensitizing effect to docetaxel” value [7] was “does not significantly enhance the sensitivity”. For the same compound, the “chemosensitizing effect to docetaxel” value [8] was “sensitizes”, the “chemosensitizing effect to lapatinib” value [9] was “sensitizes” and the tumor growth ([10]; Group 3: docetaxel 20 mg/kg i.v. weekly + wilforlide A […] i.v. weekly + 6 mg/kg i.p. daily, vs other groups) was “significant retardation of tumor growth”. For the same compound, the tumor growth ([10]; wilforlide A alone (Groups 6, 7)) was “did not significantly inhibit the tumor growth”, the “effect on docetaxel's anti-tumor effect” value ([10]; wilforlide A with docetaxel 20 mg/kg i.v.) was “significantly enhanced docetaxel's anti-tumor effect” and the “chemosensitizing effect to lapatinib” value [11] was “sensitizes”.
